Legend:
anti-DNP IgG = experiment: Modified octet solution labelling kinetics assay with PSMA coated probes; assay type: binding, rabbit
Method: To determine the kinetics of CIR 3 covalent labelling of anti-DNP IgG, a modified octet protocol was developed to accommodate the weaker binding affinity of glutamate urea on CIR 3 for biotinylated PSMA, which was loaded onto streptavidin coated octet probes in these experiments. First, streptavidin probes from ForteBio were placed in wells each containing 250 μl solutions composed of 100 nM biotinylated PSMA in kinetics Buffer (1×) spiked with 1% (v/v) DMSO for 20 minutes in an Octet Red96 instrument. The RPM was 1000, the temperature was held at 30° C., and the acquisition rate was 5 Hz. Following washing and baseline steps described above, the probes were then placed in a solution containing 200 nM CIR 3+100 nM anti-DNP IgG (Ab) that already had been allowed to react for varying amounts of time away from the octet instrument to form CIR 3-Ab, followed by quenching with 1 mM DNP-Glycine competitor to disrupt non covalent complex [CIR 3:Ab]. The association of CIR 3-Ab (already formed in solution) with PSMA coated probe was monitored, and the initial rates and final signal plateau measured as a function of the concentration of CIR 3-Ab formed with incubation time away from the octet instrument in solution. […]

[1] = test system: human serum anti-DNP IgG (sAb); experiment: BLI Fc capture probe assay of CIR 3 covalent recruitment of serum anti-DNP IgG; assay type: binding; details: 60 nM anti-DNP IgG enriched sample
Method: The ability of CIR 3 to recruit the tumour antigen PSMA to anti-DNP antibodies was measured using BLI. Anti-DNP IgG was isolated from human serum IgG (Cedarlane Labs) using affinity chromatography. The enriched anti-DNP antibody sample had 63.19 nM of anti-DNP antibody in 1.92 μM of total IgG. The enriched antibody sample was reacted with 2.5 μM of CIR 3 in PBS overnight at room temperature. A sample of 32.75 μM IgG that was depleted of anti-DNP antibody was also reacted with 2.5 μM of CIR 3 in PBS overnight at room temperature as a negative control. The BLI experiment was conducted using an Octet Red96 (ForteBio) with the temperature set at 25° C., the RPM set at 1000, and the acquisition rate set at 5 Hz. The isolated anti-DNP and CIR 3 reaction samples were suspended in 1×Kinetics Buffer (ForteBio) by doping in a 1:10 dilution of 10×Kinetics Buffer stock. A volume of 200 μL of each solution was loaded into a black flat-bottom 96-well plate (Grenier). Fc capture (ProG) biosensors from ForteBio were placed in 1×Kinetics Buffer for 20 minutes prior to the experiment for wetting. First, the probes were placed in 1×Kinetics Buffer for 4 minutes to establish a baseline. […] Association of PSMA to the probe was measured by submerging the probe in 500 nM PSMA for 10 minutes. Dissociation of PSMA from the probe was measured by submerging the probe in 1×Kinetics Buffer for 10 minutes. […]

SMILES: O=C(O)CC[C@H](NC(=O)N[C@@H](CCCCNC(=O)NCCOCCOCCOCCOCCOCCOCCOCCOC(=O)n1cnc(CCNC(=O)CNc2ccc([N+](=O)[O-])cc2[N+](=O)[O-])c1)C(=O)O)C(=O)O [CIR 3]
- pseudo intramolecular complex labelling rate constant k=kobs/0.5 (anti-DNP IgG; 200 nM CIR 3 + 100 nM anti-DNP IgG): 0.51 h⁻¹
- rate constant k2 (anti-DNP IgG; solution labelling, PSMA coated probes): 0.00014 s⁻¹
- covalent labeling of enriched serum anti-DNP IgG [1]: substantial covalent antibody labeling and resultant PSMA binding to Fc capture probes
